Results as given in patent US20050234113A1, “Antioxidant and radical scavenging activity of synthetic analogs of desferrithiocin” (University of Florida Research Foundation, Inc., priority 2002, published 2005).
“And” between values parts separate entries of the source, which are not always exact repeats. Equal values may be shown once.

Assays:
[1] = system: iron; assay: Iron clearance in the iron-overloaded Cebus apella monkey; type: in vivo; settings: 300 μmol/kg sc, as sodium salt
Protocol: The monkeys were iron overloaded with intravenous iron dextran to provide about 500 mg iron per kg body weight. The serum transferrin iron saturation rose to between 70 and 80%. At least twenty half-lives, sixty days, elapsed before any of the animals were used in experiments evaluating iron-chelating agents.
Fecal and urine samples were collected at 24 hour intervals and processed. Briefly, the collections began 4 days prior to the administration of the test drug and continued for an additional 5 days after the drug was given. Iron concentrations were determined by flame atomic absorption spectroscopy.
(§1) The iron chelators were solubilized in 40% Cremophor RH-40/water (v/v) and given orally and subcutaneously to the rats at the doses shown in Table 4. In the primates, DFO was dissolved in sterile H2O at a concentration of 50 or 100 mg/mL and given orally or subcutaneously at a volume of 1 ml/kg. The desferrithiocin analogues were solubilized in 40% Cremophor RH-40/water (v/v) and given orally to the monkeys at the doses shown in Table 4. However, the desferrithiocin analogues were administered subcutaneously as either a suspension in distilled H2O or as their sodium salts in solution as indicated in Table 4.
(§2) Iron clearance studies were carried out both in the non iron-overloaded, bile duct-cannulated rodent model and in the iron-overloaded Cebus apella monkey, and the results are reported as iron clearing efficiency (Table 4). This number is generated by dividing the net iron clearance [total iron excretion (bile or stool plus urine) minus background] by the theoretical iron clearance and multiplying by 100. The theoretical iron clearance is based on a 2:1 metal complex stoichiometry for 4′-(HO)-DADMDFT, a 1:1 stoichiometry for DFO, and a 1:1 stoichiometry for BDU, as shown in the Job's plot (FIG. 5). Data are presented as the mean±the standard error of the mean. The drugs were administered both orally (po) and subcutaneously (sc) to the rodents and primates; the positive control was DFO.

[2] = system: iron; assay: Iron clearance in the non iron-overloaded, bile duct-cannulated rodent model; type: in vivo, Sprague-Dawley rats
Protocol: Briefly, male Sprague-Dawley rats averaging 450 g were housed in Nalgene plastic metabolic cages during the experimental period and given free access to water. The animals were anesthetized using sodium pentobarbital (55 mg/kg) administered intraperitoneally. The bile duct was cannulated using 22-gauge polyethylene tubing. The cannula was inserted into the duct about 1 cm from the duodenum and tied snugly in place. After threading through the shoulder, the cannula was passed from the rat to the swivel inside a metal torque-transmitting tether, which was attached to a rodent jacket around the animal's chest. The cannula was directed from the rat to a Gilson microfraction collector (Middleton, Wis.) by a fluid swivel mounted above the metabolic cage. Bile samples were collected at 3 hour intervals for 24 hours. The urine sample was taken at 24 hours and handling was as previously described. (Bergeron, R. J., et al., J. Med. Chem. 34:2072-2078 (1991).
as §1, §2

## O=C(O)[C@H]1CSC(c2ccc(O)cc2O)=N1 [4′-(HO)-DADMDFT, 4′-hydroxydesazadesmethyldesferrithiocin]
[1]
  % stool (of iron excreted), monkeys: 75%
  % urine (of iron excreted), monkeys: 25%
  efficiency in monkeys (%): 5.3±1.7% and 5.3 ± 1.7^g %
[2]; 300 μmol/kg po
  % bile (of iron excreted), rodents: 100%
  % urine (of iron excreted), rodents: 0%
  efficiency in rodents (%): 2.9±2.8%
[2]; 300 μmol/kg sc
  % bile (of iron excreted), rodents: 90%
  % urine (of iron excreted), rodents: 10%
  efficiency in rodents (%): 2.1±0.9%
